“And” between values parts separate entries of the source, which are not always exact repeats. Equal values may be shown once. Inconclusive results and toxic doses are left out.
System: BDF1 mice, B16 melanoma ip, median survival T/C
Experiment: NCI In Vivo Anticancer Drug Screen. Data for tumor model B16 Melanoma (intraperitoneal) in B6D2F1 (BDF1) mice
Details: endpoint: median survival time, higher = longer survival
How it was run: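 Antitumor activity is assessed in mice bearing a transplanted tumor, with survival or tumor size compared against vehicle-dosed controls and expressed as T/C.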

[1] = dose: 50.0 mg/kg/injection, schedule: Q04DX003 (ip), vehicle: Klucel (hydroxypropylcellulose) (HPC)
[2] = dose: 50.0 mg/kg/injection, schedule: Q01DX009 (ip), vehicle: saline
[3] = dose: 100.0 mg/kg/injection, schedule: Q01DX009 (ip), vehicle: saline
[4] = dose: 12.5 mg/kg/injection, schedule: Q01DX009 (ip), vehicle: Klucel (hydroxypropylcellulose) (HPC)
[5] = dose: 25.0 mg/kg/injection, schedule: Q01DX009 (ip), vehicle: Klucel (hydroxypropylcellulose) (HPC)
[6] = dose: 100.0 mg/kg/injection, schedule: Q01DX009 (ip), vehicle: Klucel (hydroxypropylcellulose) (HPC)
[7] = dose: 200.0 mg/kg/injection, schedule: Q01DX009 (ip), vehicle: Klucel (hydroxypropylcellulose) (HPC)
[8] = dose: 400.0 mg/kg/injection, schedule: Q01DX009 (ip), vehicle: Klucel (hydroxypropylcellulose) (HPC)
[9] = dose: 50.0 mg/kg/injection, schedule: Q01DX009 (ip), vehicle: Klucel (hydroxypropylcellulose) (HPC)
[10] = dose: 100.0 mg/kg/injection, schedule: Q04DX003 (ip), vehicle: Klucel (hydroxypropylcellulose) (HPC)
[11] = dose: 400.0 mg/kg/injection, schedule: Q04DX003 (ip), vehicle: Klucel (hydroxypropylcellulose) (HPC)
[12] = dose: 200.0 mg/kg/injection, schedule: Q04DX003 (ip), vehicle: Klucel (hydroxypropylcellulose) (HPC)
[13] = dose: 200.0 mg/kg/injection, schedule: Q01DX009 (ip), vehicle: saline

## Cc1c2ccncc2c(C)c2c1[nH]c1ccccc12
dose: 1.25 mg/kg/injection, schedule: Q01DX009 (ip), vehicle: saline
  T/C: 109 % of control
dose: 1.25 mg/kg/injection, schedule: Q01DX009 (ip), vehicle: water
  T/C: 102 % of control
dose: 2.5 mg/kg/injection, schedule: Q01DX009 (ip), vehicle: saline
  T/C: 113 % of control
dose: 2.5 mg/kg/injection, schedule: Q01DX009 (ip), vehicle: water
  T/C: 103 % of control and 110 % of control
dose: 5.0 mg/kg/injection, schedule: Q01DX009 (ip), vehicle: saline
  T/C: 120 % of control
dose: 5.0 mg/kg/injection, schedule: Q01DX009 (ip), vehicle: water
  T/C: 110 % of control and 114 % of control
dose: 8.0 mg/kg/injection, schedule: Q01DX005 (iv), vehicle: saline with Tween-80
  T/C: 106 % of control
dose: 12.5 mg/kg/injection, schedule: Q04DX003 (ip), vehicle: distilled water + Tween-80
  T/C: 117 % of control and 121 % of control
dose: 16.0 mg/kg/injection, schedule: Q01DX005 (ip), vehicle: saline with Tween-80
  T/C: 171 % of control
dose: 16.0 mg/kg/injection, schedule: Q01DX005 (iv), vehicle: saline with Tween-80
  T/C: 110 % of control
dose: 16.0 mg/kg/injection, schedule: Q01DX005 (oral), vehicle: saline with Tween-80
  T/C: 110 % of control
dose: 25.0 mg/kg/injection, schedule: Q04DX003 (ip), vehicle: distilled water + Tween-80
  T/C: 119 % of control
dose: 32.0 mg/kg/injection, schedule: Q01DX005 (ip), vehicle: saline with Tween-80
  T/C: 191 % of control
dose: 32.0 mg/kg/injection, schedule: Q01DX005 (oral), vehicle: saline with Tween-80
  T/C: 108 % of control
[1]
  T/C: 154 % of control
dose: 64.0 mg/kg/injection, schedule: Q01DX005 (oral), vehicle: saline with Tween-80
  T/C: 117 % of control
dose: 100.0 mg/kg/injection, schedule: Q04DX003 (ip), vehicle: distilled water + Tween-80
  T/C: 153 % of control

## COc1cc(OC)cc(C(O)C(C)NC(C)C)c1 (stereo unspecified)
dose: 6.25 mg/kg/injection, schedule: Q01DX009 (ip), vehicle: saline
  T/C: 112 % of control
[2]
  T/C: 87 % of control
[3]
  T/C: 112 % of control

## O=C1CN=C(c2ccccc2)c2cc(Cl)ccc2N1
dose: 6.25 mg/kg/injection, schedule: Q01DX009 (ip), vehicle: Klucel (hydroxypropylcellulose) (HPC)
  T/C: 102 % of control
[4]
  T/C: 90 % of control
[5]
  T/C: 90 % of control

## [Cl][Pt+2][Cl].[NH-]c1cc(Cl)c(Cl)c(Cl)c1[NH-]
dose: 1.25 mg/kg/injection, schedule: Q01DX009 (ip), vehicle: saline with Tween-80
  T/C: 98 % of control
dose: 2.5 mg/kg/injection, schedule: Q01DX009 (ip), vehicle: saline with Tween-80
  T/C: 104 % of control
dose: 5.0 mg/kg/injection, schedule: Q01DX009 (ip), vehicle: saline with Tween-80
  T/C: 103 % of control
dose: 10.0 mg/kg/injection, schedule: Q01DX009 (ip), vehicle: saline with Tween-80
  T/C: 110 % of control
dose: 20.0 mg/kg/injection, schedule: Q01DX009 (ip), vehicle: saline with Tween-80
  T/C: 113 % of control
dose: 40.0 mg/kg/injection, schedule: Q01DX009 (ip), vehicle: saline with Tween-80
  T/C: 117 % of control

## Nc1ccc(OC(F)(F)C(F)Cl)cc1 (stereo unspecified)
[6]
  T/C: 86 % of control
[7]
  T/C: 96 % of control
[8]
  T/C: 103 % of control

## CCN(CC)CCOc1ccc(Br)cc1
[4]
  T/C: 96 % of control
[9]
  T/C: 87 % of control and 98 % of control

## C/C=C\C1OC1(C)c1cc(=O)c2c(C)cc3c(c2o1)C(=O)c1c(O)c(C2CC(C)(N(C)C)C(OC(C)=O)C(C)O2)cc(C2CC(N(C)C)C(O)C(C)O2)c1C3=O (stereo unspecified)
dose: 0.1 mg/kg/injection, schedule: Q01DX009 (ip), vehicle: saline
  T/C: 100 % of control
dose: 0.2 mg/kg/injection, schedule: Q01DX009 (ip), vehicle: saline
  T/C: 100 % of control
dose: 0.35 mg/kg/injection, schedule: Q01DX009 (ip), vehicle: saline with Tween-80
  T/C: 88 % of control
dose: 0.4 mg/kg/injection, schedule: Q01DX009 (ip), vehicle: saline
  T/C: 100 % of control
dose: 0.7 mg/kg/injection, schedule: Q01DX009 (ip), vehicle: saline with Tween-80
  T/C: 95 % of control
dose: 0.8 mg/kg/injection, schedule: Q01DX009 (ip), vehicle: saline
  T/C: 106 % of control

## COc1ccc(C2=CN(S(=O)(=O)c3ccc(C)cc3)CCc3ccccc32)cc1
dose: 25.0 mg/kg/injection, schedule: Q04DX003 (ip), vehicle: Klucel (hydroxypropylcellulose) (HPC)
  T/C: 112 % of control
[1]
  T/C: 110 % of control
[10]
  T/C: 91 % of control and 111 % of control
[11]
  T/C: 90 % of control

## O=[N+]([O-])c1ccc2c(c1)Cc1cc(Br)ccc1-2
[10]
  T/C: 97 % of control
[12]
  T/C: 100 % of control
[11]
  T/C: 100 % of control

## C=C(C)C12OC3(c4ccccc4)OC1C1C4OC4(CO)C(O)C4(O)C(=O)C(C)=CC4C1(O3)C(C)C2OC(=O)c1ccccc1 (stereo unspecified)
dose: 0.1 mg/kg/injection, schedule: Q01DX009 (ip), vehicle: saline with Tween-80
  T/C: 99 % of control
dose: 0.2 mg/kg/injection, schedule: Q01DX009 (ip), vehicle: saline with Tween-80
  T/C: 101 % of control
dose: 0.4 mg/kg/injection, schedule: Q01DX009 (ip), vehicle: saline with Tween-80
  T/C: 98 % of control

## C=CCOCCN1CCN(CCCN2c3ccccc3Sc3ccc(C(F)(F)F)cc32)CC1
dose: 0.31 mg/kg/injection, schedule: Q01DX009 (ip), vehicle: saline
  T/C: 102 % of control
dose: 0.62 mg/kg/injection, schedule: Q01DX009 (ip), vehicle: saline
  T/C: 95 % of control
dose: 0.78 mg/kg/injection, schedule: Q01DX009 (ip), vehicle: saline
  T/C: 102 % of control
dose: 1.56 mg/kg/injection, schedule: Q01DX009 (ip), vehicle: saline
  T/C: 114 % of control

## COc1ccc(NC(=O)COc2ccccc2Br)cc1
[6]
  T/C: 103 % of control
[7]
  T/C: 100 % of control
[8]
  T/C: 93 % of control

## Cc1ccc(NC(=O)c2cccc(C(=O)Nc3ccc(C)c(Cl)c3)c2)cc1Cl
[6]
  T/C: 97 % of control
[7]
  T/C: 105 % of control
[8]
  T/C: 97 % of control

## CCCCNS(=O)(=O)c1ccc(OC)c(N)c1
[10]
  T/C: 95 % of control
[12]
  T/C: 95 % of control
[11]
  T/C: 111 % of control

## CN(C)CCCN=Cc1cc(Cl)ccc1O.CN(C)CCCN=Cc1cc(Cl)ccc1O.[Ni+2]
dose: 6.25 mg/kg/injection, schedule: Q01DX009 (ip), vehicle: saline with Tween-80
  T/C: 122 % of control
dose: 12.5 mg/kg/injection, schedule: Q01DX009 (ip), vehicle: saline with Tween-80
  T/C: 116 % of control
dose: 25.0 mg/kg/injection, schedule: Q01DX009 (ip), vehicle: saline with Tween-80
  T/C: 111 % of control

## COc1ccc2c(c1)C(=O)CC=C(C(=O)O)N2
[3]
  T/C: 100 % of control
dose: 100.0 mg/kg/injection, schedule: Q04DX003 (ip), vehicle: saline with Tween-80
  T/C: 88 % of control
[13]
  T/C: 96 % of control
dose: 200.0 mg/kg/injection, schedule: Q04DX003 (ip), vehicle: saline with Tween-80
  T/C: 93 % of control
dose: 400.0 mg/kg/injection, schedule: Q01DX009 (ip), vehicle: saline
  T/C: 98 % of control
dose: 400.0 mg/kg/injection, schedule: Q04DX003 (ip), vehicle: saline with Tween-80
  T/C: 95 % of control

## C1OC1CN1CCN(CC2CO2)CC1 (stereo unspecified)
dose: 8.0 mg/kg/injection, schedule: Q01DX009 (ip), vehicle: saline with Tween-80
  T/C: 121 % of control
dose: 16.0 mg/kg/injection, schedule: Q01DX009 (ip), vehicle: saline with Tween-80
  T/C: 119 % of control

## COc1cccc(NC(=O)Nc2ccccc2OC)c1
[6]
  T/C: 86 % of control
[7]
  T/C: 90 % of control
[8]
  T/C: 93 % of control

## C[n+]1ccc(C#N)c2ccccc21
dose: 3.75 mg/kg/injection, schedule: Q01DX009 (ip), vehicle: saline
  T/C: 102 % of control
dose: 7.5 mg/kg/injection, schedule: Q01DX009 (ip), vehicle: saline
  T/C: 93 % of control

## O=[N+]([O-])c1ccc(Oc2ccc(Cl)cc2)cc1
[6]
  T/C: 93 % of control
[7]
  T/C: 93 % of control
[8]
  T/C: 100 % of control

## CC1(C)SC(C(NC(=O)Cc2ccccc2)C(=O)O)NC1C(=O)O (stereo unspecified)
dose: 100.0 mg/kg/injection, schedule: Q01DX009 (ip), vehicle: saline with Tween-80
  T/C: 105 % of control
dose: 200.0 mg/kg/injection, schedule: Q01DX009 (ip), vehicle: saline with Tween-80
  T/C: 102 % of control

## Cc1cc(C)c(S(=O)(=O)O)cc1C
[2]
  T/C: 115 % of control
[3]
  T/C: 104 % of control
[13]
  T/C: 87 % of control

## N/C(=N\N=C\c1ccc(-c2ccccc2)cc1)N[N+](=O)[O-]
[5]
  T/C: 93 % of control
[9]
  T/C: 90 % of control
[6]
  T/C: 93 % of control
[7]
  T/C: 86 % of control

— PubChem BioAssay AID192 (DTP/NCI, 2004)
